Assay results as given in patent US10005736B1, “Pyridine and pyrimidine derivatives” (Hoffmann-La Roche Inc., priority 2015, dated 2018).

Tested on: not given
Test: not given
Conditions: not given

SMILES | melting point
CC(C)(C)NC(=O)c1cc(-c2ccc(Cl)cc2)cc(-c2cccnc2)c1 [Example 8, N-tert-Butyl-3-(4-chlorophenyl)-5-pyridin-3-ylbenzamide] | 177 °C
CC(C)c1ccncc1-c1cc(C(=O)NC(C)(C)C)cc(-c2ccc(Cl)cc2)c1 [Example 9, N-tert-Butyl-3-(4-chlorophenyl)-5-(4-propan-2-ylpyridin-3-yl)-benzamide] | 148 °C
CC(C)(C)NC(=O)c1cc(-c2ccc(Cl)cc2)cc(-c2cncnc2)c1 [Example 10, N-tert-Butyl-3-(4-chlorophenyl)-5-pyrimidin-5-ylbenzamide] | 195 °C
CC(C)c1ncncc1-c1cc(C(=O)NC(C)(C)C)cc(-c2ccc(Cl)cc2)c1 [Example 11, N-tert-Butyl-3-(4-chlorophenyl)-5-(4-propan-2-ylpyrimidin-5-yl)-benzamide] | 182 °C
CC(C)c1ncncc1-c1cc(C(=O)NC(C)(C)C(F)(F)F)cc(-c2ccc(Cl)cc2)c1 [Example 18, 3-(4-Chlorophenyl)-5-(4-propan-2-ylpyrimidin-5-yl)-N-(1,1,1-trifluoro-2-methylpropan-2-yl)-benzamide] | 170 °C
Cc1ncncc1-c1cc(C(=O)NC(C)(C)C)cc(-c2ccc(Cl)cc2)c1 [Example 41, N-tert-Butyl-3-(4-chlorophenyl)-5-(4-methyl-pyrimidin-5-yl)-benzamide] | 192 °C
CC(C)(C)NC(=O)c1cc(-c2ccc(Cl)cc2)cc(-c2cncnc2C(C)(C)C)c1 [Example 42, N-tert-Butyl-3-(4-tert-butyl-pyrimidin-5-yl)-5-(4-chlorophenyl)-benzamide] | 108 °C
CC(C)c1ncncc1-c1cc(C(=O)NC(C)(C)CO)cc(-c2ccc(Cl)cc2)c1 [Example 43, 3-(4-Chlorophenyl)-N-(1-hydroxy-2-methylpropan-2-yl)-5-(4-propan-2-yl-pyrimidin-5-yl)-benzamide] | 86 °C
CC(C)c1ncncc1-c1cc(C(=O)NC(C)(C)CO)cc(-c2ccc(F)cc2)c1 [Example 44, 3-(4-Fluorophenyl)-N-(1-hydroxy-2-methylpropan-2-yl)-5-(4-propan-2-yl-pyrimidin-5-yl)-benzamide] | 63 °C
CC(C)c1ncncc1-c1cc(C(=O)NC(C)(C)CO)cc(-c2ccc(C(F)(F)F)cc2)c1 [Example 45, N-(1-Hydroxy-2-methylpropan-2-yl)-3-(4-propan-2-yl-pyrimidin-5-yl)-5-[4-(trifluoromethyl)-phenyl]-benzamide] | 80 °C
CC(C)(C)NC(=O)c1cc(-c2ccc(F)c(F)c2)cc(-c2cncnc2C(C)(C)C)c1 [Example 48, N-tert-Butyl-3-(4-tert-butyl-primidin-5-yl)-5-(3,4-difluorophenyl)-benzamide] | 99 °C
CC(C)(C)NC(=O)c1cc(-c2ccc(C(F)(F)F)cc2)cc(-c2cncnc2C(C)(C)C)c1 [Example 49, N-tert-Butyl-3-(4-tert-butyl-pyrimidin-5-yl)-5-[4-(trifluoromethyl)-phenyl]-benzamide] | 91 °C
CC(C)(C)NC(=O)c1cc(-c2ccc(F)cc2)cc(-c2cncnc2C(C)(C)C)c1 [Example 51, N-tert-Butyl-3-(4-tert-butyl-pyrimidin-5-yl)-5-(4-fluorophenyl)-benziimide] | 102 °C
CC(C)(C)NC(=O)c1cc(-c2ccc(Cl)cc2)cc(-c2cnccc2C(C)(C)C)c1 [Example 53, N-tert-Butyl-3-(4-tert-butylpyridin-3-yl)-5-(4-chlorophenyl)-benzamide] | 63.5 °C

Target: T1, human EAAT3 (Homo sapiens, UniProt P43005)
T1 construct: expressed in transfected cells; host or cells: HEK-293
T1 sequence (P43005 1-524): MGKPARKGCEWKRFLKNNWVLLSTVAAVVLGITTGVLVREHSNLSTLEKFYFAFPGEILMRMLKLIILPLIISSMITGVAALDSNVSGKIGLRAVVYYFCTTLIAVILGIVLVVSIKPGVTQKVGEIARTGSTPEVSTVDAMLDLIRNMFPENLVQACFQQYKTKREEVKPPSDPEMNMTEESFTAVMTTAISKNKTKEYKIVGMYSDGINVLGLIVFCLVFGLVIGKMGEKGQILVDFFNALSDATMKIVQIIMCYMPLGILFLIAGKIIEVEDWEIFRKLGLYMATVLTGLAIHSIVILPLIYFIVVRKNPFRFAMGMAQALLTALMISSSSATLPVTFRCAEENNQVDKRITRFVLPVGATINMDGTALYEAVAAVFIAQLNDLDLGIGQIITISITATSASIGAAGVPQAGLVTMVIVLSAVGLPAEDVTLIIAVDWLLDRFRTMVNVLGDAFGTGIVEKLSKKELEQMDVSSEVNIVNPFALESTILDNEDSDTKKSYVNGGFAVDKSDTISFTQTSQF
Test: FLIPR Membrane Potential (FMP) assay, antagonist potency at human EAAT3
Assay type: cell-based
Conditions: HEK-293 cells stably expressing human EAAT3; L-glutamate as agonist at EC80; antagonists applied 15 min before; Kb by Cheng-Prusoff from IC50
Protocol: The FLIPR Membrane Potential (FMP) Assay
HEK-293 cells stably expressing human EAAT3 were seeded at 55 000 cells/well in growth medium (DMEM glutamate free (Invitrogen 11960-044), 1% Pen Strep (10 ml/1 GIBCO BRL N^o 15140-023), 10% FCS non dialysed heat inactivated, 5 mg/l puromycin) in poly-D-lysine treated 96-well black microtiter plates with clear-bottom. After 24 h, the growth medium was removed and […] of Krebs buffer (140 mM NaCl, 4.7 mM KCl, 2.5 mM CaCl2, 1.2 mM MgCl2, 11 mM HEPES, 10 mM D-glucose, pH=7.4) added. The cells were then loaded by adding 100 μl/well FMP assay dye (FLIPR Membrane Potential assay reagent, Molecular Devices). The 96-well plates were then incubated at 37° C. for 1 h. The depolarization of the cells will cause more dye to enter in the cells, where it will bind to intracellular proteins and lipids and cause an increase in the fluorescence signal. Antagonist potency at human EAAT3 was determined by using L-glutamate as agonist at a concentration which gives 80% of the maximum response. The antagonists were applied 15 min before the application of the agonist L-glutamate. The assays were performed at room temperature and measurements done by using a Fluorometric Imaging Plate Reader (FLIPR, Molecular Devices) and filter #2. Responses were measured as peak increase in fluorescence minus basal (i.e. fluorescence without addition of L-glutamate). Kb was determined using the Cheng-Prusoff equation Kb=IC50/[1+(A/EC50)], where IC50 is the concentration of the antagonist producing 50% inhibition, A is the concentration of the agonist against which the IC50 is being determined (at EC80) and EC50 is the concentration of the agonist producing 50% […].

SMILES | Kb
CC(C)c1ncncc1-c1cc(C(=O)NC2(C)CCS(=O)(=O)C2)cc(-c2ccc(Cl)cc2)c1 (racemic) [Example 12, (RS)-3-(4-Chlorophenyl)-N-(3-methyl-1,1-dioxothiolan-3-yl)-5-(4-propan-2-ylpyrimidin-5-yl)-benzamide] | 310 nM
Cc1ncccc1-c1cc(C(=O)NC2(C)CCS(=O)(=O)C2)cc(-c2ccc(Cl)cc2)c1 (racemic) [Example 13, (RS)-3-(4-Chlorophenyl)-N-(3-methyl-1,1-dioxothiolan-3-yl)-5-(2-methyl-pyridin-3-yl)-benzamide] | 510 nM
CCC(C)(C)NC(=O)c1cc(-c2ccc(C)cc2)cc(-c2cccnc2)c1 [Example 1, N-(2-Methylbutan-2-yl)-3-(4-methylphenyl)-5-pyridin-3-ylbenzamide] | 325 nM
CCC(C)(C)NC(=O)c1cc(-c2ccc(C)cc2)cc(-c2cncnc2)c1 [Example 2, N-(2-Methylbutan-2-yl)-3-(4-methylphenyl)-5-pyrimidin-5-ylbenzamide] | 220 nM
CCC(C)(C)NC(=O)c1cc(-c2ccc(C)cc2)cc(-c2cncnc2C(C)C)c1 [Example 3, N-(2-Methylbutan-2-yl)-3-(4-methylphenyl)-5-(4-propan-2-ylpyrimidin-5-yl)-benzamide] | 230 nM
CCC(C)(C)NC(=O)c1cc(-c2ccc(C)cc2)cc(-c2cnccc2C)c1 [Example 4, N-(2-Methylbutan-2-yl)-3-(4-methylphenyl)-5-(4-methylpyridin-3-yl)-benzamide] | 290 nM
CCC(C)(C)NC(=O)c1cc(-c2ccc(C)cc2)cc(-c2cccnc2C)c1 [Example 5, N-(2-Methylbutan-2-yl)-3-(4-methylphenyl)-5-(2-methylpyridin-3-yl)-benzamide] | 250 nM
CCC(C)(C)NC(=O)c1cc(-c2ccc(C)cc2)cc(-c2cnccc2C(C)C)c1 [Example 6, N-(2-Methylbutan-2-yl)-3-(4-methylphenyl)-5-(4-propan-2-ylpyridin-3-yl)-benzamide] | 380 nM
Cc1ccncc1-c1cc(C(=O)NC(C)(C)C)cc(-c2ccc(Cl)cc2)c1 [Example 7, N-tert-Butyl-3-(4-chlorophenyl)-5-(4-methylpyridin-3-yl)-benzamide] | 310 nM
CC(C)(C)NC(=O)c1cc(-c2ccc(Cl)cc2)cc(-c2cccnc2)c1 [Example 8, N-tert-Butyl-3-(4-chlorophenyl)-5-pyridin-3-ylbenzamide] | 350 nM
CC(C)c1ccncc1-c1cc(C(=O)NC(C)(C)C)cc(-c2ccc(Cl)cc2)c1 [Example 9, N-tert-Butyl-3-(4-chlorophenyl)-5-(4-propan-2-ylpyridin-3-yl)-benzamide] | 540 nM
CC(C)(C)NC(=O)c1cc(-c2ccc(Cl)cc2)cc(-c2cncnc2)c1 [Example 10, N-tert-Butyl-3-(4-chlorophenyl)-5-pyrimidin-5-ylbenzamide] | 270 nM
CC(C)c1ncncc1-c1cc(C(=O)NC(C)(C)C)cc(-c2ccc(Cl)cc2)c1 [Example 11, N-tert-Butyl-3-(4-chlorophenyl)-5-(4-propan-2-ylpyrimidin-5-yl)-benzamide] | 230 nM
CCC(C)(C)NC(=O)c1cc(-c2ccc(C)cc2)cc(-c2cccnc2C(C)C)c1 [Example 14, N-(2-Methylbutan-2-yl)-3-(4-methylphenyl)-5-(2-propan-2-ylpyridin-3-yl)-benzamide] | 570 nM
CC(C)c1ncccc1-c1cc(C(=O)NC(C)(C)C)cc(-c2ccc(Cl)cc2)c1 [Example 15, N-tert-Butyl-3-(4-chlorophenyl)-5-(2-propan-2-ylpyridin-3-yl)-benzamide] | 630 nM
CC(C)c1ncncc1-c1cc(C(=O)NC(C)(C)C2CC2)cc(-c2ccc(Cl)cc2)c1 [Example 16, 3-(4-Chlorophenyl)-N-(2-cyclopropylpropan-2-yl)-5-(4-propan-2-ylpyrimidin-5-yl)-benzamide] | 420 nM
Cc1ncccc1-c1cc(C(=O)NC(C)(C)C2CC2)cc(-c2ccc(Cl)cc2)c1 [Example 17, 3-(4-Chlorophenyl)-N-(2-cyclopropylpropan-2-yl)-5-(2-methylpyridin-3-yl)-benzamide] | 640 nM
CC(C)c1ncncc1-c1cc(C(=O)NC(C)(C)C(F)(F)F)cc(-c2ccc(Cl)cc2)c1 [Example 18, 3-(4-Chlorophenyl)-5-(4-propan-2-ylpyrimidin-5-yl)-N-(1,1,1-trifluoro-2-methylpropan-2-yl)-benzamide] | 250 nM
Cc1ncccc1-c1cc(C(=O)NC(C)(C)C(F)(F)F)cc(-c2ccc(Cl)cc2)c1 [Example 19, 3-(4-Chlorophenyl)-5-(2-methylpyridin-3-yl)-N-(1,1,1-trifluoro-2-methylpropan-2-yl)-benzamide] | 340 nM
